From ChEMBL document CHEMBL6177993, “De Novo 3-(Phenylcarbamoyl) Benzoate Analogues: Efficacy against Multidrug-Resistant S. aureus and Elucidation of the Biodistribution Profile” (J Med Chem, 2025)
In brackets after ≈: the same amount, converted by molar mass. Activity calls are given as the source filed them. The rule behind the calls is not given here.

Tests used:
Enterococcus faecalis = test: Antibacterial activity against Enterococcus faecalis ATCC 35550 assessed as reduction in bacterial growth measured after 18 to 24 hrs by broth microdilution method; assay type: functional; settings: time 18-24 hrs
Bacillus subtilis = test: Antibacterial activity against Bacillus subtilis IITKSM1 assessed as reduction in bacterial growth measured after 18 to 24 hrs by broth microdilution method; assay type: functional; settings: time 18-24 hrs
Staphylococcus aureus [1] = test: Antibacterial activity against Staphylococcus aureus ATCC 29213 assessed as reduction in bacterial growth measured after 18 to 24 hrs by broth microdilution method; assay type: functional; settings: time 18-24 hrs
Klebsiella pneumoniae = test: Antibacterial activity against Klebsiella pneumoniae BAA 1705 assessed as reduction in bacterial growth measured after 18 to 24 hrs by broth microdilution method; assay type: functional; settings: time 18-24 hrs
Acinetobacter baumannii = test: Antibacterial activity against Acinetobacter baumannii BAA 1605 assessed as reduction in bacterial growth measured after 18 to 24 hrs by broth microdilution method; assay type: functional; settings: time 18-24 hrs
Pseudomonas aeruginosa = test: Antibacterial activity against Pseudomonas aeruginosa ATCC 27853 assessed as reduction in bacterial growth measured after 18 to 24 hrs by broth microdilution method; assay type: functional; settings: time 18-24 hrs
Escherichia coli = test: Antibacterial activity against Escherichia coli ATCC 25922 assessed as reduction in bacterial growth measured after 18 to 24 hrs by broth microdilution method; assay type: functional; settings: time 18-24 hrs
[2] = Solubility of the compound in distilled water; assay type: physicochemical; settings: buffer
[3] = Solubility of the compound in DMSO/DMF; assay type: physicochemical
Staphylococcus aureus [4] = test: Antibacterial activity against methicillin-sensitive Staphylococcus aureus ATCC 29213 assessed as reduction in bacterial growth measured after 18 to 24 hrs by broth microdilution method; assay type: functional; settings: time 18-24 hrs
Staphylococcus aureus [5] = test: Antibacterial activity against methicillin-resistant Staphylococcus aureus NRS 100 assessed as reduction in bacterial growth measured after 18 to 24 hrs by broth microdilution method; assay type: functional; settings: time 18-24 hrs
Staphylococcus aureus [6] = test: Antibacterial activity against methicillin-resistant Staphylococcus aureus NRS 119 assessed as reduction in bacterial growth measured after 18 to 24 hrs by broth microdilution method; assay type: functional; settings: time 18-24 hrs
Staphylococcus aureus [7] = test: Antibacterial activity against methicillin-resistant Staphylococcus aureus NRS 129 assessed as reduction in bacterial growth measured after 18 to 24 hrs by broth microdilution method; assay type: functional; settings: time 18-24 hrs
Staphylococcus aureus [8] = test: Antibacterial activity against methicillin-resistant Staphylococcus aureus NRS 186 assessed as reduction in bacterial growth measured after 18 to 24 hrs by broth microdilution method; assay type: functional; settings: time 18-24 hrs
Staphylococcus aureus [9] = test: Antibacterial activity against methicillin-resistant Staphylococcus aureus NRS 191 assessed as reduction in bacterial growth measured after 18 to 24 hrs by broth microdilution method; assay type: functional; settings: time 18-24 hrs
Staphylococcus aureus [10] = test: Antibacterial activity against methicillin-resistant Staphylococcus aureus NRS 192 assessed as reduction in bacterial growth measured after 18 to 24 hrs by broth microdilution method; assay type: functional; settings: time 18-24 hrs
Staphylococcus aureus [11] = test: Antibacterial activity against methicillin-resistant Staphylococcus aureus NRS 193 assessed as reduction in bacterial growth measured after 18 to 24 hrs by broth microdilution method; assay type: functional; settings: time 18-24 hrs
Staphylococcus aureus [12] = test: Antibacterial activity against methicillin-resistant Staphylococcus aureus NRS 194 assessed as reduction in bacterial growth measured after 18 to 24 hrs by broth microdilution method; assay type: functional; settings: time 18-24 hrs
Staphylococcus aureus [13] = test: Antibacterial activity against methicillin-resistant Staphylococcus aureus NRS 198 assessed as reduction in bacterial growth measured after 18 to 24 hrs by broth microdilution method; assay type: functional; settings: time 18-24 hrs
Staphylococcus aureus [14] = test: Antibacterial activity against vacomycin-resistant Staphylococcus aureus VRS 1 assessed as reduction in bacterial growth measured after 18 to 24 hrs by broth microdilution method; assay type: functional; settings: time 18-24 hrs
Staphylococcus aureus [15] = test: Antibacterial activity against vacomycin-resistant Staphylococcus aureus VRS 4 assessed as reduction in bacterial growth measured after 18 to 24 hrs by broth microdilution method; assay type: functional; settings: time 18-24 hrs
Staphylococcus aureus [16] = test: Antibacterial activity against vacomycin-resistant Staphylococcus aureus VRS 12 assessed as reduction in bacterial growth measured after 18 to 24 hrs by broth microdilution method; assay type: functional; settings: time 18-24 hrs
[17] = Hemolytic activity in human Red blood cell at 32 ug/ml measured after 1 hrs by spectrophotometric analysis relative to control; assay type: toxicity, cell-based, Erythrocyte; settings: red blood cells, at 32 µg/mL, read-out: Activity
HEK293 [18] = test: Cytotoxicity against HEK293 cells assessed as cell viability at 1 times MIC measured after 24 hrs by Calcein-AM/PI staining based fluorescence microscopy analysis; assay type: toxicity; settings: human, hek293, 24 h
HEK293 [19] = test: Cytotoxicity against HEK293 cells assessed as cell viability measured after 72 hrs by MTT assay; assay type: toxicity, cell-based; settings: human, hek293, 72 h
Staphylococcus aureus [20] = test: Inhibition of biofilm in Staphylococcus aureus ATCC 29213 at 1 times MIC measured after 12 hrs by crystal violet staining based analysis relative to control; assay type: functional
Staphylococcus aureus [21] = test: Inhibition of biofilm in Staphylococcus aureus ATCC 29213 at 0.5 times MIC measured after 12 hrs by crystal violet staining based analysis relative to control; assay type: functional
Staphylococcus aureus [22] = test: Inhibition of biofilm in Staphylococcus aureus ATCC 29213 at 2 times MIC measured after 12 hrs by crystal violet staining based analysis relative to control; assay type: functional
Staphylococcus aureus [23] = test: Inhibition of biofilm in Staphylococcus aureus ATCC 29213 at 2 ug/ml measured after 12 hrs by crystal violet staining based analysis; assay type: functional, organism-based; settings: dose 2.0 µg/ml
Staphylococcus aureus [24] = test: Antibacterial activity against Staphylococcus aureus ATCC 29213 measured after 20 passages; assay type: functional, organism-based
Cell membrane [25] = test: Disruption of cell membrane in Staphylococcus aureus ATCC 29213 assessed as increase in red fluorescence at 5 to 10 times MIC measured after 4 hrs by DAPI and PI staining based fluorescence microscopic analysis
Cell membrane [26] = test: Disruption of cell membrane in Staphylococcus aureus ATCC 29213 assessed as increase in PI uptake at 10 times MIC measured after 8 mins by fluorescence based microplate reader analysis
Staphylococcus aureus [27] = test: Induction of morphological changes in Staphylococcus aureus ATCC 29213 assessed as cell shrinkage at 10 times MIC measured after 4 hrs by atomic force microscopy based analysis (reference value: 60.170 nanometer); assay type: functional
Staphylococcus aureus [28] = test: Induction of morphological changes in Staphylococcus aureus ATCC 29213 assessed as cell shrinkage by measuring cells height at 10 times MIC measured after 4 hrs by atomic force microscopy based analysis (reference value: 170.8 nanometer); assay type: functional
Staphylococcus aureus [29] = test: Induction of morphological changes in Staphylococcus aureus ATCC 29213 assessed as cell shrinkage by measuring cells diameter at 10 times MIC measured after 4 hrs by atomic force microscopy based analysis (reference value: 1.017 micrometer); assay type: functional
Staphylococcus aureus [30] = test: Induction of morphological changes in Staphylococcus aureus ATCC 29213 assessed as cell deformation at 2 to 10 times MIC measured after 4 hrs by Scanning electron microscopy based analysis; assay type: functional, organism-based
Staphylococcus aureus [31] = test: Induction of morphological changes in Staphylococcus aureus ATCC 29213 assessed as appearance of cell surface fold at 2 to 10 times MIC measured after 4 hrs by Scanning electron microscopy based analysis; assay type: functional, organism-based
Staphylococcus aureus [32] = test: Induction of morphological changes in Staphylococcus aureus ATCC 29213 assessed as cell shrinkage at 2 to 10 times MIC measured after 4 hrs by Scanning electron microscopy based analysis; assay type: functional, organism-based
Staphylococcus aureus [33] = test: Induction of morphological changes in Staphylococcus aureus ATCC 29213 assessed as accumulation of cellular debris at 2 to 10 times MIC measured after 4 hrs by Scanning electron microscopy based analysis; assay type: functional, organism-based
Staphylococcus aureus [34] = test: Induction of morphological changes in Staphylococcus aureus ATCC 29213 assessed as leakage of subcellular components at 2 to 10 times MIC measured after 4 hrs by Scanning electron microscopy based analysis; assay type: functional, organism-based
Staphylococcus aureus [35] = test: Synergistic antibacterial activity against Staphylococcus aureus ATCC 29213 assessed as fractional inhibitory concentration index in presence of vancomycin by checkerboard assay; assay type: functional
Staphylococcus aureus [36] = test: Synergistic antibacterial activity against Staphylococcus aureus ATCC 29213 assessed as fractional inhibitory concentration index in presence of levofloxacin by checkerboard assay; assay type: functional
[37] = target: T1, UDP-N-acetylenolpyruvoylglucosamine reductase (Staphylococcus aureus, UniProt P61431); test: Binding affinity to Staphylococcus aureus MurB assessed as inhibition constant
T1 sequence (P61431 whole entry): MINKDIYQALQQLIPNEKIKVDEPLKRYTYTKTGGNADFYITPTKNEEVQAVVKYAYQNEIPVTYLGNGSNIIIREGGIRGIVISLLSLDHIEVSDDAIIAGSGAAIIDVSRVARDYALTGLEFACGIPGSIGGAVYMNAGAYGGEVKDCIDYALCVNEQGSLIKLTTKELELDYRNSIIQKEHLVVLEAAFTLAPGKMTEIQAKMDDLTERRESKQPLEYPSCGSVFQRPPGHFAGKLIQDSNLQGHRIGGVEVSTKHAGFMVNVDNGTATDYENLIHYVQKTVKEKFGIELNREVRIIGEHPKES

[38] = Binding affinity to Staphylococcus aureus MurA assessed as inhibition constant
[39] = Binding affinity to Staphylococcus aureus MurZ assessed as inhibition constant

## CC(C)(C)c1cc(C(c2ccccc2)c2ccccc2)c(NC(=O)c2cccc(C(=O)O)c2)c(C(c2ccccc2)c2ccccc2)c1
Enterococcus faecalis
  MIC: 1 µg/mL (≈ 0.00159 mM)
Bacillus subtilis
  MIC: 1 µg/mL (≈ 0.00159 mM)
Staphylococcus aureus [1]
  MIC: 2 µg/mL (≈ 0.00318 mM)
Klebsiella pneumoniae
  MIC: > 64 µg/mL
Acinetobacter baumannii
  MIC: > 64 µg/mL
Pseudomonas aeruginosa
  MIC: > 64 µg/mL
Escherichia coli
  MIC: > 64 µg/mL
[2]
  solubility: Insoluble
[3]
  solubility: 660 mg/mL (≈ 1050 mM)
Staphylococcus aureus [4]
  MIC: 4 µg/mL (≈ 0.00635 mM)
Staphylococcus aureus [5]
  MIC: 4 µg/mL (≈ 0.00635 mM)
Staphylococcus aureus [6]
  MIC: 4 µg/mL (≈ 0.00635 mM)
Staphylococcus aureus [7]
  MIC: 4 µg/mL (≈ 0.00635 mM)
Staphylococcus aureus [8]
  MIC: 4 µg/mL (≈ 0.00635 mM)
Staphylococcus aureus [9]
  MIC: 4 µg/mL (≈ 0.00635 mM)
Staphylococcus aureus [10]
  MIC: 4 µg/mL (≈ 0.00635 mM)
Staphylococcus aureus [11]
  MIC: 4 µg/mL (≈ 0.00635 mM)
Staphylococcus aureus [12]
  MIC: 4 µg/mL (≈ 0.00635 mM)
Staphylococcus aureus [13]
  MIC: 4 µg/mL (≈ 0.00635 mM)
Staphylococcus aureus [14]
  MIC: 4 µg/mL (≈ 0.00635 mM)
Staphylococcus aureus [15]
  MIC: 4 µg/mL (≈ 0.00635 mM)
Staphylococcus aureus [16]
  MIC: 4 µg/mL (≈ 0.00635 mM)
[17]
  hemolysis at 1 h, 32 ug/ml: ~25%
HEK293 [18]
  Activity: Toxic
HEK293 [19]
  Activity: Toxic
Staphylococcus aureus [20]
  inhibition (INH): 95%
Staphylococcus aureus [21]
  inhibition (INH): >50%
Staphylococcus aureus [22]
  inhibition (INH): 95%
Staphylococcus aureus [23]
  inhibition: Active
Staphylococcus aureus [24]
  Activity: Active
Cell membrane [25]
  Activity: Active
Cell membrane [26]
  Activity: Active
Staphylococcus aureus [27]
  Activity: 53.464 nm
Staphylococcus aureus [28]
  Activity: 105.1 nm
Staphylococcus aureus [29]
  Activity: 0.68 um
Staphylococcus aureus [30]
  Activity: Active
Staphylococcus aureus [31]
  Activity: Active
Staphylococcus aureus [32]
  Activity: Active
Staphylococcus aureus [33]
  Activity: Active
Staphylococcus aureus [34]
  Activity: Active
Staphylococcus aureus [35]
  fractional inhibitory concentration index (FICI): 0.258
Staphylococcus aureus [36]
  fractional inhibitory concentration index (FICI): 0.75
[37]
  Ki: 2.52 µM
[38]
  Ki: 117 µM
[39]
  Ki: 133 µM
